Experimental data published in article PMC7717570, “Deciphering the enzymatic target of a new family of antischistosomal agents bearing a quinazoline scaffold using complementary computational tools” (Journal of Enzyme Inhibition and Medicinal Chemistry, 2020).
Read-outs that look alike come from different tables or passages of the source.

Tests used:
[1] = tested on: S. mansoni-infected mouse model; experiment: In vivo antischistosomal efficacy in the S. mansoni-infected mouse model; parameters: species or system Schistosoma mansoni; conditions: mice
Description: PZQ was obtained from Egyptian International Pharmaceutical Industries Company (EIPICO) and aminobenzotriazole (ABT) from Fluorochem Ltd.
Male Swiss albino mice (CD-1) obtained from SBSC and weighing 18–20 g were housed under environmentally controlled room temperature of 20–22 °C, 12 h light/dark cycle and 50–60% humidity with food and water ad libitum throughout the acclimatisation and experimental periods. All the animal experiments were conducted in accordance with the Guide for Care and Use of Laboratory Animals and were approved by the Institutional Review Board of Theodor Bilharz Research Institute (TBRI).
Mice were infected with S. mansoni cercariae [provided by Schistosome Biology Supply Center (SBSC)] using body immersion[16] by exposure to 80 ± 10 cercariae/mouse. Infected mice were divided into six groups: groups 1 and 2 were treated the vehicle and the CYP450 inhibitor ABT respectively; groups 3 and 4 were dosed for 5 days with NPD-1246 at 20 and 10 mg/kg, respectively, while group 5 was treated with PZQ at 10 mg/kg/day for 5 days. Group 6 was treated with NPD-1246 combined with PZQ, each at 10 mg/kg/day for 5 days starting from week 7 post-infection. To minimise first-pass elimination, ABT was administered at 100 mg/kg/day for 5 days 2 h prior to each compound administration. NPD-1246 and PZQ were freshly suspended in 2% Cremophore-EL (Sigma-Aldrich). All drug administrations were performed orally.
Ten days post-treatment, all mice were sacrificed and perfused, and the number of worms recovered (worm burden) was quantified and sexed. The number of eggs per gram of liver or intestinal tissue was counted. The percentage of egg developmental stages (oogram pattern) was studied[19] in which eggs at different stages of maturity (from I to IV) were identified and counted. Mature eggs and dead eggs (granular, dark, and semi-transparent) were also counted in three fragments of intestine and the mean number of each stage was calculated.
The percentage reduction of worm or egg burden in each treated group was calculated. […] Results are expressed as mean ± SEM. A two-tailed, unpaired Student’s t-test was used to detect the significance of difference between the means of different groups. Results are considered significant if p value is <0.05.

[2] = Microsomal stability, human liver microsomes (S9), Phase-II (UGT enzymes); format: in vitro ADME; conditions: 5 µM
Description: (§1) Mouse or human liver microsomes (S9), reduced nicotinamide adenine dinucleotide phosphate (NADPH) generating system solutions and uridine glucuronosyltransferase (UGT) reaction mix (BD Biosciences) were kept at −80 °C. The test compounds and reference compound diclofenac were formulated in DMSO at […]. The assay was carried out based on the BD Biosciences Guidelines for Use (TF000017 Rev1.0) with minor adaptations. The metabolic stability of the compounds was studied through the CYP450 superfamily (Phase-I metabolism) by fortification with NADPH and through UGT enzymes (Phase-II metabolism) by fortification with uridine diphosphate glucuronic acid (UDPGA). For CYP450 and other NADPH dependent enzymes, the compounds were incubated at 5 µM together with 0.5 mg/mL S9 in potassium phosphate buffer in a reaction started by the addition of 1 mM NADP. At defined time points, 20 µL was withdrawn from the reaction mixture and 80 µL cold acetonitrile (ACN) was added to inactivate the enzymes and precipitate the protein. The mixture was vortexed for 30 s and centrifuged at 4 °C for 5 min to collect the supernatant. For UGT enzymes, the compounds were incubated at 5 µM together with 0.5 mg/mL S9 in a reaction started by the addition of 2 mM UDPGA cofactor. The loss of parent compound was determined using liquid chromatography (UPLC) (Waters Aquity^TM) coupled with tandem quadrupole mass spectrometry (MS^2) (Waters Xevo^TM), equipped with an electrospray ionisation (ESI) interface and operated in multiple reaction monitoring (MRM) mode.

[3] = tested on: Schistosoma mansoni mature worms; experiment: In vitro S. mansoni worm killing; parameters: key to Worm killing (male worms) / Worm killing (female worms): % worm mortality = dead worms / total worms × 100; conditions: for Worm killing (female worms) / Worm killing (male worms): day 5
Description: The percentage reduction of worm or egg burden in each treated group was calculated. […] Results are expressed as mean ± SEM. A two-tailed, unpaired Student’s t-test was used to detect the significance of difference between the means of different groups. […] Stock solutions of 5 mM PZQ and the quinazoline derivatives 2–13 were prepared in DMSO. Concentrations of 100 µM, 50 µM, 25 µM, 10 µM and 5 µM were freshly prepared on the day of experiment in RPMI-1640 medium. All compounds were initially tested at 100 and 50 µM; those showing worm killing were further tested at 25, 10 and 5 µM. Worms were obtained from SBSC of TBRI. Six to eight worms were placed in 12-well tissue culture plates and fresh RPMI-1640 medium (supplemented with glutamine, 20% newborn calf serum and streptomycin, penicillin, and gentamicin), containing the indicated concentration of the test compound was added[20]^,[21]. Worms were incubated overnight in a CO2 incubator at 37 °C. On the 2nd day, worms were examined by microscopy, washed three times with normal saline, fresh medium was added and the incubation was continued. On the 3rd day, worm motility was observed and on the 4th day, medium was changed again. On day 5 (end of the observation period), worms were microscopically examined for their motility and appearance. Each concentration was tested in duplicate, and the final recording of percent worm mortality was determined as the number of dead worms [contracted and opaque] divided by the total number of worms × 100. Negative controls used medium without additions or medium with 2% DMSO; positive control media containing identical concentrations of PZQ were tested in parallel.

[4] = Microsomal stability, human liver microsomes (S9), Phase-I (CYP450-NADPH); format: in vitro ADME; conditions: 5 µM
Description: as §1

[5] = tested on: Schistosoma mansoni worm couples; experiment: S. mansoni ovipositing capacity and coupling
Description: Stock solutions of 5 mM PZQ and the quinazoline derivatives 2–13 were prepared in DMSO. Concentrations of 100 µM, 50 µM, 25 µM, 10 µM and 5 µM were freshly prepared on the day of experiment in RPMI-1640 medium. All compounds were initially tested at 100 and 50 µM; those showing worm killing were further tested at 25, 10 and 5 µM. 12-well tissue culture plates were used, each well containing 6–8 worms with at least one worm couple. Worms were incubated overnight in a CO2 incubator at 37 °C. Each concentration was tested in duplicate wells. On day 4, eggs were counted and discarded and the medium was changed. On day 5 (end of observation period) newly deposited eggs were counted. The final egg number is the total count of days 4 and 5 for each concentration tested and the final recording of the percentage of egg reduction was determined as [the total number of eggs on days 4 and 5 of control – the total number of eggs on days 4 and 5 of treated]/the total number of eggs on days 4 and 5 of control × 100.

[6] = Microsomal stability, mouse liver microsomes (S9), Phase-I (CYP450-NADPH); format: in vitro ADME; conditions: 5 µM
Description: as §1

[7] = Microsomal stability, mouse liver microsomes (S9), Phase-II (UGT enzymes); format: in vitro ADME; conditions: 5 µM
Description: as §1

Q: Which results are given for `O=C(C1CCCCC1)N1CC(=O)N2CCc3ccccc3C2C1` (stereo not drawn) [PZQ, praziquantel, reference compound]?
A: Reduction in intestinal tissue egg load (percentage change from infected control) ([1]; oral 10 mg/kg/day (each) for 5 days with ABT): 70%; Reduction in total worm burden (percentage change from infected control) ([1]; oral 10 mg/kg/day (each) for 5 days with ABT 100 mg/kg/day, sacrificed 10 days post-treatment): 63%; Reduction in hepatic tissue egg load (percentage change from infected control) ([1]; oral 10 mg/kg/day (each) for 5 days with ABT, + = increase): 38%

Q: For `COc1cc2c(=O)n(Cc3ccc(F)cc3)c(=O)n(Cc3ccc(C(F)(F)F)cc3)c2cc1OC` [compound 10, 3-(4-Fluorobenzyl)-1-(4-(trifluoromethyl)benzyl)-6,7-dimethoxyquinazolin-2,4(1H,3H)-dione], which “% Parent compound remaining upon incubation” value ([2]; 0 h) is on record?
A: 100%

Q: What about the “% Parent compound remaining upon incubation” value ([2]; 0.25 h) of the same molecule?
A: 102%

Q: What about the “% Parent compound remaining upon incubation” value ([2]; 0.5 h) of the same molecule?
A: 106%

Q: What about the “% Parent compound remaining upon incubation” value ([2]; 1 h) of the same molecule?
A: 98%

Q: What about the killing at 5 µM ([3]; Schistosoma mansoni, 120 h, 5 µM, day 5, mature (6 weeks old) worms, dose-titration (Table 3), read-out: Worm killing (% of total)) of the same molecule?
A: 0%

Q: And the killing at 10 µM ([3]; Schistosoma mansoni, 120 h, 10 µM, day 5, mature (6 weeks old) worms, dose-titration (Table 3), read-out: Worm killing (% of total))?
A: 8%

Q: And the killing at 25 µM ([3]; Schistosoma mansoni, 120 h, 25 µM, day 5, mature (6 weeks old) worms, dose-titration (Table 3), read-out: Worm killing (% of total))?
A: 50%

Q: And the killing at 50 µM ([3]; Schistosoma mansoni, 120 h, 50 µM, day 5, initial test (Table 2), read-out: Worm killing (% of total))?
A: 93%

Q: What about the killing at 50 µM ([3]; Schistosoma mansoni, 120 h, 50 µM, day 5, mature (6 weeks old) worms, dose-titration (Table 3), read-out: Worm killing (% of total)) of the same molecule?
A: 100%

Q: And the killing at 100 µM ([3]; Schistosoma mansoni, 120 h, 100 µM, day 5, initial test (Table 2), read-out: Worm killing (% of total))?
A: 100%

Q: What about the killing at 100 µM ([3]; Schistosoma mansoni, 120 h, 100 µM, day 5, mature (6 weeks old) worms, dose-titration (Table 3), read-out: Worm killing (% of total)) of the same molecule?
A: 100%

Q: And the EC50 ([3]; Schistosoma mansoni, males and females together, read-out: EC50 (worm killing))?
A: 25 µM

Q: And the EC50 ([3]; Schistosoma mansoni, read-out: EC50 (worm killing, female worms))?
A: 26 µM

Q: And the EC50 ([3]; Schistosoma mansoni, read-out: EC50 (worm killing, male worms))?
A: 20 µM

Q: And the “Worm killing (female worms)” value ([3]; 5 µM)?
A: 0

Q: And the “Worm killing (female worms)” value ([3]; 10 µM)?
A: 0

Q: And the “Worm killing (female worms)” value ([3]; 25 µM)?
A: 33

Q: And the “Worm killing (female worms)” value ([3]; 50 µM)?
A: 100

Q: And the “Worm killing (female worms)” value ([3]; 100 µM)?
A: 100

Q: What about the “Worm killing (male worms)” value ([3]; 5 µM) of the same molecule?
A: 0

Q: What about the “Worm killing (male worms)” value ([3]; 10 µM) of the same molecule?
A: 14

Q: What about the “Worm killing (male worms)” value ([3]; 25 µM) of the same molecule?
A: 63

Q: And the “Worm killing (male worms)” value ([3]; 50 µM)?
A: 100

Q: And the “Worm killing (male worms)” value ([3]; 100 µM)?
A: 100

Q: What about the “% Parent compound remaining upon incubation” value ([4]; 0 h) of the same molecule?
A: 100%

Q: What about the “% Parent compound remaining upon incubation” value ([4]; 0.25 h) of the same molecule?
A: 108%

Q: And the “% Parent compound remaining upon incubation” value ([4]; 0.5 h)?
A: 83%

Q: And the “% Parent compound remaining upon incubation” value ([4]; 1 h)?
A: 65%

Q: What about the Uncoupling ([5]; 5 µM, dose-titration (Table 3)) of the same molecule?
A: No

Q: What about the Uncoupling ([5]; 10 µM, dose-titration (Table 3)) of the same molecule?
A: No

Q: What about the Uncoupling ([5]; 25 µM, dose-titration (Table 3)) of the same molecule?
A: Yes

Q: And the Uncoupling ([5]; 50 µM, dose-titration (Table 3))?
A: Yes

Q: What about the Uncoupling ([5]; 50 µM, initial test (Table 2)) of the same molecule?
A: Yes

Q: And the Uncoupling ([5]; 100 µM, dose-titration (Table 3))?
A: Yes

Q: What about the Uncoupling ([5]; 100 µM, initial test (Table 2)) of the same molecule?
A: Yes

Q: What about the inhibition at 5 µM ([5]; Schistosoma mansoni, 120 h, 5 µM, dose-titration (Table 3), read-out: Reduction in number of eggs (%)) of the same molecule?
A: 77%

Q: And the inhibition at 10 µM ([5]; Schistosoma mansoni, 120 h, 10 µM, dose-titration (Table 3), read-out: Reduction in number of eggs (%))?
A: 80%

Q: What about the inhibition at 25 µM ([5]; Schistosoma mansoni, 120 h, 25 µM, dose-titration (Table 3), read-out: Reduction in number of eggs (%)) of the same molecule?
A: 100%

Q: What about the inhibition at 50 µM ([5]; Schistosoma mansoni, 120 h, 50 µM, initial test (Table 2), read-out: Reduction in number of eggs (%)) of the same molecule?
A: 100%

Q: And the inhibition at 100 µM ([5]; Schistosoma mansoni, 120 h, 100 µM, initial test (Table 2), read-out: Reduction in number of eggs (%))?
A: 100%

Q: And the “% Parent compound remaining upon incubation” value ([6]; 0 h)?
A: 100%

Q: What about the “% Parent compound remaining upon incubation” value ([6]; 0.25 h) of the same molecule?
A: 85%

Q: And the “% Parent compound remaining upon incubation” value ([6]; 0.5 h)?
A: 39%

Q: And the “% Parent compound remaining upon incubation” value ([6]; 1 h)?
A: 32%

Q: What about the “% Parent compound remaining upon incubation” value ([7]; 0 h) of the same molecule?
A: 100%

Q: And the “% Parent compound remaining upon incubation” value ([7]; 0.25 h)?
A: 89%

Q: What about the “% Parent compound remaining upon incubation” value ([7]; 0.5 h) of the same molecule?
A: 83%

Q: And the “% Parent compound remaining upon incubation” value ([7]; 1 h)?
A: 91%
